Laboratory results from ChEMBL document CHEMBL5038642, “Synthesis and Antiviral Activities of Neoechinulin B and Its Derivatives” (J Nat Prod, 2022).
Calls of active or inactive are those of the source. The calls are words filed in the database; no cut-off is given here.

Legend:
Huh7.5.1 = experiment: Cytotoxicity against human Huh-7.5.1 cells assessed as reduction in cell viability measured at 72 hrs by MTT assay; assay type: functional
Huh-7.5.1 [1] = experiment: Antagonist activity at LXR (unknown origin) expressed in human Huh-7.5.1 cells transfected with luciferase reporter plasmid containing of LXRE assessed as reduction in T0901317-induced reporter activity at 30 uM measured after 48 hrs by luciferase reporter assay; assay type: cell-based
Huh-7.5.1 [2] = experiment: Antagonist activity at LXR (unknown origin) expressed in human Huh-7.5.1 cells transfected with luciferase reporter plasmid containing of LXRE assessed as reduction in T0901317-induced reporter activity at 5 uM measured after 48 hrs by luciferase reporter assay; assay type: cell-based; details: filed as antagonist
[3] = Cytotoxicity against African green monkey Vero E6 cells expressing TMPRSS2 assessed as reduction in cell viability incubated for 24 hrs by DAPI staining based confocal microscopic analysis; assay type: toxicity, Vero C1008; details: chlorocebus sabaeus
Hepatitis C virus = experiment: Antiviral activity against HCV JFH-1 infected in human Huh-7.5.1 cells assessed as reduction in viral replication measured after 72 hrs by chemiluminescent enzyme immunoassay; assay type: functional, organism-based, Hepacivirus hominis
SARS-CoV-2 = experiment: Antiviral activity against SARS-CoV-2 WK-251 infected in African green monkey Vero E6 cells expressing TMPRSS2 assessed as reduction in viral RNA replication incubated for 24 hrs by qRT-PCR analysis; assay type: functional, organism-based, Severe acute respiratory syndrome coronavirus 2; details: for IC50: Severe acute respiratory syndrome coronavirus 2, WK-251, Vero C1008, 24 h
Huh-7.5.1 [4] = experiment: Antagonist activity at LXR (unknown origin) expressed in human Huh-7.5.1 cells transfected with luciferase reporter plasmid containing of LXRE assessed as reduction in T0901317-induced reporter activity at 10 uM measured after 48 hrs by luciferase reporter assay; assay type: cell-based; details: filed as antagonist

SMILES | CC50 (Huh7.5.1) [µM] | further results
C=c1[nH]c(=O)/c(=C/c2ccccc2)[nH]c1=O | > 20 | Activity (Huh-7.5.1 [1]): inactive
C=c1[nH]c(=O)/c(=C/c2ccc(-c3ccccc3)cc2)[nH]c1=O | > 20 | –
C=c1[nH]c(=O)/c(=C/c2ccc(C(C)(C)C)cc2)[nH]c1=O | > 20 | Activity (Huh-7.5.1 [2]): Active
C=CC(C)(C)c1[nH]c2ccccc2c1/C=C1\NC(=O)C(C)(OC)NC1=O (stereo not drawn) [VARIECOLORIN H] | > 20 | –
C=c1[nH]c(=O)/c(=C/c2cc(OC)c(OC)c(OC)c2)[nH]c1=O | > 20 | –
C=c1[nH]c(=O)/c(=C/c2ccc3ccccc3c2)[nH]c1=O | > 20 | –
C=c1[nH]c(=O)/c(=C/c2ccoc2)[nH]c1=O | > 20 | –
C=c1[nH]c(=O)/c(=C/c2ccc3ccc4cccc5ccc2c3c45)[nH]c1=O | > 20 | CC50 at 24 h [3]: > 100 µM; IC50 (Hepatitis C virus; JFH-1, Huh-7.5.1, 72 h): 3.9 µM; IC90 (Hepatitis C virus; JFH-1, Huh-7.5.1, time 72 hrs): > 20 µM; IC50 (SARS-CoV-2): > 40 µM; IC90 (SARS-CoV-2; Severe acute respiratory syndrome coronavirus 2, WK-251, Vero C1008, time 24 hrs): > 40 µM
C=c1[nH]c(=O)/c(=C/c2cc(C(C)(C)C)cc(C(C)(C)C)c2)[nH]c1=O | > 20 | –
C=c1[nH]c(=O)/c(=C/c2ccc(C(F)(F)F)cc2)[nH]c1=O | > 20 | IC50 (SARS-CoV-2): 9.1 µM
C=c1[nH]c(=O)/c(=C/c2ccsc2)[nH]c1=O | > 20 | –
C=CC(C)(C)c1[nH]c2ccccc2c1C[C@@H]1NC(=O)[C@H](C)NC1=O [PREECHINULIN] | > 20 | –
C=c1[nH]c(=O)/c(=C/c2ccc(OC)c(OC)c2)[nH]c1=O | > 20 | –
C=c1[nH]c(=O)/c(=C/c2ccc(C)cc2)[nH]c1=O | > 20 | –
C=CC(C)(C)c1[nH]c2ccccc2c1/C=c1\[nH]c(=O)c(=C)[nH]c1=O [NEOECHINULIN B] | > 20 | Activity (Huh-7.5.1 [4]): Active
C=c1[nH]c(=O)/c(=C/c2ccc(N(C)C)cc2)[nH]c1=O | > 20 | –
C=c1[nH]c(=O)/c(=C/c2ccc(C(=O)OC)cc2)[nH]c1=O | > 20 | –
C=c1[nH]c(=O)/c(=C/c2c[nH]c3ccccc23)[nH]c1=O | > 20 | –
C=c1[nH]c(=O)/c(=C/c2ccc(OC)cc2)[nH]c1=O | > 20 | –
